Reference: US11866450B2, “Modulators of Cystic Fibrosis Transmembrane Conductance regulator, pharmaceutical compositions, methods of treatment, and process for making the modulators” (priority 2018, dated 2024)

Molecular target: CFTR-mediated chloride transport (Homo sapiens, UniProt P13569)
Type: cell-based
Conditions: enteroid cells incubated with test compound 18-24 hours, acute 10 μM forskolin and 300 nM Compound III; for Max. Activity: % of chloride transport with 3 μM Compound A, 3 μM Compound II and 300 nM acute Compound III triple combination control
Procedure: Base medium (ADF+++) consisted of Advanced DMEM/Ham's F12, 2 mM Glutamax, 10 mM HEPES, […] penicillin/streptomycin.
Intestinal enteroid maintenance medium (IEMM) consisted of ADF+++, 1× B27 supplement, 1× N2 supplement, 1.25 mM N-acetyl cysteine, 10 mM Nicotinamide, 50 ng/mL hEGF, 10 nM Gastrin, 1 μg/mL hR-spondin-1, 100 ng/mL hNoggin, TGF-b type 1 inhibitor A-83-01, 100 μg/mL Primocin, 10 μM P38 MAPK inhibitor SB202190.
Bath 1 Buffer consisted of 1 mM MgCl2, 160 mM NaCl, 4.5 mM KCl, 10 mM HEPES, 10 mM Glucose, 2 mM CaCl2).
Chloride Free Buffer consisted of 1 mM Magnesium Gluconate, 2 mM Calcium Gluconate, 4.5 mM Potassium Gluconate, 160 mM Sodium Gluconate, 10 mM HEPES, 10 mM Glucose.
Bath1 Dye Solution consisted of Bath 1 Buffer, 0.04% Pluronic F127, 20 μM Methyl Oxonol, 30 μM CaCCinh-A01, 30 μM Chicago Sky Blue.
Chloride Free Dye Solution consisted of Chloride Free Buffer, 0.04% Pluronic F127, 20 μM Methyl Oxonol, 30 μM CaCCinh-A01, 30 μM Chicago Sky Blue.
Chloride Free Dye Stimulation Solution consisted of Chloride Free Dye Solution, 10 μM forskolin, 100 μM IBMX, and 300 nM Compound III.
Human intestinal epithelial enteroid cells were obtained from the Hubrecht Institute for Developmental Biology and Stem Cell Research, Utrecht, The Netherlands and expanded in T-Flasks as previously described (Dekkers J F, Wiegerinck C L, de Jonge H R, Bronsveld I, Janssens H M, de Winter-de Groot K M, Brandsma A M, de Jong N W M, Bijvelds M J C, Scholte B J, Nieuwenhuis E E S, van den Brink S, Clevers H, van der Ent C K, Middendorp S and M Beekman J M. A functional CFTR assay using primary cystic fibrosis intestinal organoids. Nat Med. 2013 July; 19(7):939-45).
Cells were recovered in cell recovery solution, collected by centrifugation at 650 rpm for 5 min at 4° C., resuspended in TryPLE and incubated for 5 min at 37° C. Cells were then collected by centrifugation at 650 rpm for 5 min at 4° C. and resuspended in IEMM containing 10 μM ROCK inhibitor (RI) (trans-4-[(1R)-1-aminoethyl]-N-4-pyridinylcyclohexanecarboxamide). The cell suspension was passed through a 40 μm cell strainer and resuspended at 1×10^6 cells/mL in IEMM containing 10 μM RI. Cells were seeded at 5000 cells/well into multi-well plates and incubated for overnight at 37° C., 95% humidity and 5% CO2 prior to assay.
Enteroid cells were incubated with test compound in IEMM for 18-24 hours at 37° C., 95% humidity and 5% CO2. Following compound incubations, a membrane potential dye assay was employed using a FLIPR Tetra to directly measure the potency and efficacy of the test compound on CFTR-mediated chloride transport following acute addition of 10 μM forskolin and 300 nM Compound III. Briefly, cells were washed 5 times in Bath 1 Buffer. Bath 1 Dye Solution was added and the cells were incubated for 25 min at room temperature. Following dye incubation, cells were washed 3 times in Chloride Free Dye Solution. Chloride transport was initiated by addition of Chloride Free Dye Stimulation Solution and the fluorescence signal was read for 15 min. The CFTR-mediated chloride transport for each condition was determined from the AUC of the fluorescence response to acute forskolin and 300 nM Compound III stimulation. Chloride transport was then expressed as a percentage of the chloride transport following treatment with 3 μM Compound A, 3 μM Compound II and 300 nM acute Compound III triple combination control (% Activity).

Chain of CFTR-mediated chloride transport (P13569 whole entry, looked up): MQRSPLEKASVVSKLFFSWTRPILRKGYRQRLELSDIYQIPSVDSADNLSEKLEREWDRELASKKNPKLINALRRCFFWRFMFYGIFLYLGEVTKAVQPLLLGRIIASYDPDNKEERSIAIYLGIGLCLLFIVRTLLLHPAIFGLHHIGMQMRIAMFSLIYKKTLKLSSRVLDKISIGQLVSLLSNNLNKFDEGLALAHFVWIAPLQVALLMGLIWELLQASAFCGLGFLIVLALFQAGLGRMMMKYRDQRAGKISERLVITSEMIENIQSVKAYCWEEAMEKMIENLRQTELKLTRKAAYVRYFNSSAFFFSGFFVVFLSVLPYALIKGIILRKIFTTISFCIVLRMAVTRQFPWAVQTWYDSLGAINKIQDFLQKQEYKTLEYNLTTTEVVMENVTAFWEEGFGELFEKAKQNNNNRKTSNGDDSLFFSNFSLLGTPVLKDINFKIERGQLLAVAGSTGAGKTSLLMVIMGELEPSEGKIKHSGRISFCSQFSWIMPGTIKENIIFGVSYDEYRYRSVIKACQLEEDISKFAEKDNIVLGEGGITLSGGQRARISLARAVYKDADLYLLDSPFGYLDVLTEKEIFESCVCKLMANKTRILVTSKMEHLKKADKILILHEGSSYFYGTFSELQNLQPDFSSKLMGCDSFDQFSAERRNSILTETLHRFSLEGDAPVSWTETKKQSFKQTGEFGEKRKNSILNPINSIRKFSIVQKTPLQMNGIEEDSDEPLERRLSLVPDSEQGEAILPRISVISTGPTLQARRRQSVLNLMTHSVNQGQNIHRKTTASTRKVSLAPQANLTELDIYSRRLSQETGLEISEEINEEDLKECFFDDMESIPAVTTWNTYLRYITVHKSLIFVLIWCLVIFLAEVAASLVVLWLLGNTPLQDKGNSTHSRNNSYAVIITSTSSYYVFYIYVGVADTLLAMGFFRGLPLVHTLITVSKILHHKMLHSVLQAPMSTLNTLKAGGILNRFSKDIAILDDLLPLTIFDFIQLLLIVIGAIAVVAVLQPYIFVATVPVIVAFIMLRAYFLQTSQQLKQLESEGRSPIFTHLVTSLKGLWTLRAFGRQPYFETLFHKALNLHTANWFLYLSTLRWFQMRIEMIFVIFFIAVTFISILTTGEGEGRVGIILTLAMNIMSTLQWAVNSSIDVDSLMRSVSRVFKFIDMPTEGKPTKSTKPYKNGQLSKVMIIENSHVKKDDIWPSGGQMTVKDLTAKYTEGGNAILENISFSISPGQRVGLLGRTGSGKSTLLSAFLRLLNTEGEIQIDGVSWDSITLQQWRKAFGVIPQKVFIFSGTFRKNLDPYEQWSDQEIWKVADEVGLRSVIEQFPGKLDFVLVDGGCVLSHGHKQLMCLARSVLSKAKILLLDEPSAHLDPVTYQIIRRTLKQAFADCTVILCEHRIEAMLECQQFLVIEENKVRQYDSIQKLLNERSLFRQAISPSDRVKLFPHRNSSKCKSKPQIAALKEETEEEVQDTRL

SMILES	EC50	Max. Activity
CC1(C)CC2CCCNc3cccc(n3)S(=O)(=O)NC(=O)c3ccc(-n4ccc(OCC5C6(CC6)C56CC6)n4)nc3N1C2 (racemic) [Compound 105, 8-[3-({dispiro[2.0.2.1]heptan-7-yl}methoxy)-1H-pyrazol-1-yl]-12,12-dimethyl-2λ^6-thia-3,9,11,18,23-pentaazatetracyclo[17.3.1.111,14.05,10]tetracosa-1(22),5,7,9,19(23),20-hexaene-2,2,4-trione]	< 1000 nM	+++ (+++ is >60%)
CC(C)(C)COc1ccn(-c2ccc3c(n2)N2C[C@H](CCNc4cccc(n4)S(=O)(=O)NC3=O)CC2(C)C)n1 (single isomer, unassigned) [Compound 2, 11-[3-(2,2-dimethylpropoxy)-1H-pyrazol-1-yl]-7,7-dimethyl-17λ^6-thia-2,8,10,16,22-pentaazatetracyclo[16.3.1.15,8.09,14]tricosa-1(21),9(14),10,12,18(22),19-hexaene-15,17,17-trione]	1000 to 3000 nM	+++ (+++ is >60%)
CC(C)(C)COc1ccn(-c2ccc3c(n2)N2C[C@H](CCNc4cccc(n4)S(=O)(=O)NC3=O)CC2(C)C)n1 (single isomer, unassigned) [Compound 3, 11-[3-(2,2-dimethylpropoxy)-1H-pyrazol-1-yl]-7,7-dimethyl-17λ^6-thia-2,8,10,16,22-pentaazatetracyclo[16.3.1.15,8.09,14]tricosa-1(21),9(14),10,12,18(22),19-hexaene-15,17,17-trione]	< 1000 nM	+++ (+++ is >60%)
CC1(C)C[C@H]2CCNc3cccc(n3)S(=O)(=O)NC(=O)c3ccc(-n4ccc(OCC5(C(F)(F)F)CC5)n4)nc3N1C2 (single isomer, unassigned) [Compound 5, 7,7-dimethyl-11-(3-{[1-(trifluoromethyl)cyclopropyl]methoxy}-1H-pyrazol-1-yl)-17λ^6-thia-2,8,10,16,22-pentaazatetracyclo[16.3.1.1(5,8).0(9,14)]tricosa-1(21),9(14),10,12,18(22),19-hexaene-15,17,17-trione]	< 1000 nM	+++ (+++ is >60%)
CC1(C)C[C@H]2CCNc3cccc(n3)S(=O)(=O)NC(=O)c3ccc(-n4ccc(OCC5(C(F)(F)F)CC5)n4)nc3N1C2 (single isomer, unassigned) [Compound 6, 7,7-dimethyl-11-(3-{[1-(trifluoromethyl)cyclopropyl]methoxy}-1H-pyrazol-1-yl)-17λ^6-thia-2,8,10,16,22-pentaazatetracyclo[16.3.1.1(5,8).0(9,14)]tricosa-1(21),9(14),10,12,18(22),19-hexaene-15,17,17-trione]	< 1000 nM	+++ (+++ is >60%)
CC1(C)CC[C@H]2CCCOc3cccc(c3)S(=O)(=O)NC(=O)c3ccc(-n4ccc(OCCC5(C(F)(F)F)CC5)n4)nc3N21 (single isomer, unassigned) [Compound 7, 12,12-dimethyl-8-(3-{2-[1-(trifluoromethyl)cyclopropyl]ethoxy}-1H-pyrazol-1-yl)-19-oxa-2λ^6-thia-3,9,11-triazatetracyclo[18.3.1.05,10.011,15]tetracosa-1(24),5(10),6,8,20,22-hexaene-2,2,4-trione]	< 1000 nM	++ (++ is 30-60%)
CC1(C)CC[C@H]2CCCOc3cccc(c3)S(=O)(=O)NC(=O)c3ccc(-n4ccc(OCCC5(C(F)(F)F)CC5)n4)nc3N21 (single isomer, unassigned) [Compound 8, 12,12-dimethyl-8-(3-{2-[1-(trifluoromethyl)cyclopropyl]ethoxy}-1H-pyrazol-1-yl)-19-oxa-2λ^6-thia-3,9,11-triazatetracyclo[18.3.1.05,10.011,15]tetracosa-1(24),5(10),6,8,20,22-hexaene-2,2,4-trione]	> 3000 nM	+ (+ is <30%)
